# From patent publication US20100119483A1, “PEPTIDE VIRAL ENTRY INHIBITORS” (Schering Corporation, priority 2004, published 2010)
# Several values for one entry are separate records, joined by “and”; a condition that tells them apart may be missing. Equal values may be shown once.
# Key:
# [1] = system: amphotropic murine leukemia virus; assay: AMLV pseudotyped virus entry counter-screen, same infection protocol; format: cell-based; conditions: peptide library screen; cell entry inhibition vs uninhibited control
# Summary of the method: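 Huh7 hepatoma cells pre-incubated with peptide 1 h at 37 °C, then infected with AMLV pseudotyped virus and cultured 72 h at 37 °C, 5% CO2 before luciferase read-out. Peptides screened at 100 ug/ml, then 10-point 3-fold titrations from 100 ug/ml.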
# HIVpp = assay: HIV pseudotyped virus (HIVpp) entry counter-screen; format: cell-based; conditions: 1st and 2nd trial
# Method: Infection of hepatoma cell lines with HCV pseudotype particles and screen for inhibitory peptides. The hepatoma cells, Huh7, was seeded at 8000 cells in 90 ul medium in 96-well plate. In the case of the inhibitor screen, the inhibitor was incubated with cells for one hour at 37° C. and then 50 ul viral supernatant was added to the cells 24 hours after seeding. The viral stock was pre-tittered and diluted to yield approximately 10,000 to 20,000 RLU. The cells were incubated at 37° C. with 5% CO2 for additional 72 hours and were harvested for luciferase assay. Peptide stocks were prepared in 100% DMSO at 10 mg/ml and were first screened at 100 ug/ml and then a dose responsive curve was generated with 10 points 3-fold titration starting from 100 ug/ml.
# The specificity of the peptides were counter-screened with AMLV and HIV pseudotyped viruses using the same infection protocol.
# The data points for the dose response curve of peptide […] (SEQ ID NO: 77) are shown below in tables 5A (HCVpp) and 5B (HIVpp). The peptide of SEQ ID NO: 77 was first serial diluted by the factor of 3 in 100% DMSO from 100 ug/ml and then transferred to the assay plates at 100-fold dilution. The peptide was first incubated with cells and HCVpp (A) or HIVpp (B), respectively, for 30 minutes at […] in this experiment. Then, the medium containing the peptide was removed from the cells and virus with peptide was added to the cells. Cells were incubated for 72 hours and then were harvested for luciferase assay. Two separate trials were performed.
# HCV pseudoparticles [2] = assay: HCV pseudoparticle entry assay, anti-CD81 antibody and peptide titrated in a 96-well matrix; format: cell-based, hepatitis C virus; conditions: HCV entry inhibition, combination
# Method: The anti-CD81 antibody and the peptide were titrated in duplicates in a 96-well formatted matrix and tested in an HCV pseudoparticle entry assay. The assays were carried out essentially as described above.
# Dose response curves of anti-CD81 antibody with various amounts of peptide were plotted vs. RLU, and the results are summarized below. […] When the peptide was present at 10-30% of its IC50 concentration, the IC50 for anti-CD81 was reduced by 3 to 6-fold. Similarly, when the peptide was present at 1% to 25% of its IC75 concentration, the IC75 for the anti-CD81 antibody was reduced by 3 to 9 fold. Thus, the peptide enhances the potency of the anti-CD81 antibody.
# HCV pseudoparticles [3] = assay: Fusion/attachment experiments with HCV pseudoparticles (4° C. attachment, 37° C. entry); format: cell-based, hepatitis C virus; conditions: for RLU: single replicates, listed as V-2b
# Method: The entry process was allowed to complete after the cells were washed and incubated at 37° C. for 72 hours. If the peptide blocked or interfered with the attachment, few HCVpp particles should bind to the cells and lead to reduced luciferase signal. The peptide had approximately 50% inhibition whereas the anti-CD81 antibody inhibited entry by 20%. Alternatively, an explanation could be that the cell-associated peptide or antibody had no effects on virus attachment, but rather inhibit post-attachment steps, e.g. fusion. When we allowed the HCV pseudoparticles to attach first at 4° C., a nonpermissive temperature for fusion, and added the peptide or anti-CD81 antibody when post-attachment events occurred, anti-CD81 antibody almost inhibited entry by 100%, whereas, the peptide inhibited by approximately 80%.
# The incubation scheme for the fusion/attachment experiments is summarized as follows: […]
# [4] = A + P (attachment + post attachment)
substance,measurement,setting,value
V-S-F-A-I-K-W-E-Y-V-L-L-L-F-L-L [SEQ ID NO: 77],AMLVpp % inh,[1],3%
same,RLU units,HIVpp; peptide conc. 0.091515 log ug/ml,674698 RLU and 651004 RLU
same,RLU units,HIVpp; peptide conc. 0.568636 log ug/ml,561454 RLU and 612198 RLU
same,RLU units,HIVpp; peptide conc. 1.045758 log ug/ml,740592 RLU and 744482 RLU
same,RLU units,HIVpp; peptide conc. 1.522879 log ug/ml,787025 RLU and 683636 RLU
same,RLU units,HIVpp; peptide conc. 2 log ug/ml,435408 RLU and 543239 RLU
same,RLU units,HIVpp; peptide conc. −0.38561 log ug/ml,732652 RLU and 734586 RLU
same,RLU units,HIVpp; peptide conc. −0.86273 log ug/ml,676303 RLU and 639921 RLU
same,RLU units,HIVpp; peptide conc. −1.33985 log ug/ml,815312 RLU and 754404 RLU
same,effect of the peptide on potency of anti-CD81 antibody,HCV pseudoparticles [2],enhance the potency of an anti-CD81 antibody
same,step of HCVpp entry inhibited,HCV pseudoparticles [3],largely inhibits a post-attachment step
same,% control peptide,HCV pseudoparticles [3]; A (attachment),39 % control
same,RLU average (peptide),HCV pseudoparticles [3]; A (attachment),5942 RLU
same,RLU,HCV pseudoparticles [3]; A (attachment),5196 RLU and 7987 RLU and 4644 RLU
same,% control peptide,HCV pseudoparticles [3]; [4],6 % control
same,RLU average (peptide),HCV pseudoparticles [3]; [4],863 RLU
same,RLU,HCV pseudoparticles [3]; [4],527 RLU and 1541 RLU and 520 RLU
same,inhibition of entry,"HCV pseudoparticles [3]; HCV pseudoparticles attached first at 4° C., substance added when post-attachment events occurred",approximately 80%
same,% control peptide,HCV pseudoparticles [3]; P (post attachment),11 % control
same,RLU average (peptide),HCV pseudoparticles [3]; P (post attachment),1647 RLU
same,RLU,HCV pseudoparticles [3]; P (post attachment),1984 RLU and 2412 RLU and 545 RLU
same,inhibition of entry,"HCV pseudoparticles [3]; pre-incubated with cells at 4° C., then HCV pseudoparticles at 4° C., washed, 37° C. for 72 hours (attachment)",approximately 50%
